Data set [1] deals with T1, 5-HT2A receptor (Homo sapiens, UniProt P28223). Kind of data set: Functional activity, FLIPR calcium assay, CHO cells expressing human 5-HT2A. Format: cell-based. The arrangement: expressed in transfected cells; host or cells: CHO cells. Conditions: for EC50: CHO cells; for h5-HT2A Relative Efficacy: maximum fluorescent signal relative to 10 μM 5-HT (100%). The protocol:
(§1) The functional activity of compounds of formula (I) was assayed using a Fluorimetric Imaging Plate reader (FLIPR). CHO cells expressing the human 5-HT2C or human 5-HT2A receptors were counted and plated into standard 96 well microtitre plates on the day before testing to give a confluent monolayer. The cells were then dye loaded with the calcium sensitive dye, Fluo-3-AM. Unincorporated dye was removed using an automated cell washer to leave a total volume of 100 μL/well of assay buffer (Hanks balanced salt solution containing 20 mM Hepes and 2.5 mM probenecid). The drug (dissolved in 50 μL of the assay buffer) was added at a rate of 70 μL/sec to each well of the FLIPR 96 well plate during fluorescence measurements. The measurements were taken at 1 sec intervals and the maximum fluorescent signal was measured (approx 10-15 secs after drug addition) and compared with the response produced by 10 μM 5-HT (defined as 100%) to which it was expressed as a percentage response (relative efficacy). Dose response curves were constructed using Graphpad Prism (Graph Software Inc.).

Data set [2] has as its target T2, human 5-HT2C (Homo sapiens, UniProt P28335).
T2 sequence (P28335 33-458): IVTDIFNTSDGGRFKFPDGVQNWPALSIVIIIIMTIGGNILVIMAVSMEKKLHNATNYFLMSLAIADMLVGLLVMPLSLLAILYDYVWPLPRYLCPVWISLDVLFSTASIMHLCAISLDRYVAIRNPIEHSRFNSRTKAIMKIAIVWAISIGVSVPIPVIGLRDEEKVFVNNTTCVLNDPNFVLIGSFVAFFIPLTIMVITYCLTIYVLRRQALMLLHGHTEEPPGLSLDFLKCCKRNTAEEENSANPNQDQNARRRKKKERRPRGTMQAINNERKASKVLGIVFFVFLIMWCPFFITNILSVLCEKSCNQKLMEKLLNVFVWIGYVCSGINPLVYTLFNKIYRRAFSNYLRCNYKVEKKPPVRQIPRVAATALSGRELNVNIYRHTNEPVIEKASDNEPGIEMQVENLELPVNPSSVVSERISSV
Kind of data set: Binding to 5-HT2C receptor, [3H]-5-HT, CHO cell line. The arrangement: expressed in transfected cells; host or cells: CHO cell line. The protocol: (§2) The binding of compounds of formula (I) to serotonin receptors was determined in vitro by standard methods. The preparations were investigated in accordance with the assays given hereinafter.
Method (a): For the binding to the 5-HT2C receptor the 5-HT2C receptors were radiolabeled with [^3H]-5-HT. The affinity of the compounds for 5-HT2C receptors in a CHO cell line was determined according to the procedure of D. Hoyer, G. Engel and H. O. Kalkman, European J. Pharmacol., 1985, 118, 13-23.

The target of data set [3] is T3, human 5-HT2B receptors (Homo sapiens, UniProt P41595).
T3 construct: expressed in transfected cells; host or cells: CHO cell line
Kind of data set: Binding to 5-HT2B receptor, [3H]-5-HT, CHO cell line. As for the experimental part:
as §2
Method (b): For the binding to the 5-HT2B receptor the 5-HT2B receptors were radiolabeled with [^3H]-5-HT. The affinity of the compounds for human 5-HT2B receptors in a CHO cell line was determined according to the procedure of K. Schmuck, C. Ullmer, P. Engels and H. Lubbert, FEBS Lett., 1994, 342, 85-90.

The target in data set [4] is T1, 5-HT2A receptor. Kind of data set: Binding to 5-HT2A receptor, [125I]-DOI, CHO cell line. The arrangement: expressed in transfected cells; host or cells: CHO cell line. As for the experimental part:
as §2
Method (c): For the binding to the 5-HT2A receptor the 5-HT2A receptors were radiolabeled with [^125I]-DOI. The affinity of the compounds for 5-HT2A receptors in a CHO cell line was determined according to the procedure of D. J. McKenna and S. J. Peroutka, J. Neurosci., 1989, 9, 3482-90.

Data set [5] has as its target T2, human 5-HT2C. Kind of data set: Functional activity, FLIPR calcium assay, CHO cells expressing human 5-HT2C. Format: cell-based. Also on record: expressed in transfected cells; host or cells: CHO cells. The following applies: for EC50: CHO cells; for h5-HT2c Relative Efficacy: maximum fluorescent signal relative to 10 μM 5-HT (100%). As for the experimental part:
as §1

For data set [6], the system named is rats. Kind of data set: In vivo efficacy: 5-HT2C syndrome in rats. Also on record: species or system rat. Conditions: 20 mg/kg s.c. As for the experimental part: The in vivo efficacy of 5-HT2C agonists was assessed by the ability of the compounds to induce three specific behaviours (5HT2C Syndrome) in rats.
The 5-HT2c syndrome is a rapid screening method to assess the in vivo efficacy of 5-HT2c agonists through their ability to induce three specific behaviours in rats. The animals were dosed with either a positive control (mCPP), test compound or vehicle, either sub-cutaneously or p.o. The animals were observed on an open bench, typically 30, 60 and 180 minutes after dosing and the degree of syndrome was assessed over a two minute period on a scale of 0-3 depending on the presence and severity of splayed limbs, hunched posture and retro-pulsion, the three specific behaviours which constitute the syndrome. Data were analysed using Kruskal-Wallis Analysis of Variance followed with appropriate post-hoc tests. All statistical analysis were conducted using Excel version 7.0 (Microsoft Corp.) and Statistica version 5.0 (Statsoft, Inc.).

The mark [7] stands for this setting: [3H]-5-HT, CHO cell line, read-out: Ki (2C).
[8] abbreviates: [3H]-5-HT, human receptor, CHO cell line, read-out: Ki (2B).
Setting [9] is: [125I]-DOI, CHO cell line, read-out: Ki (2A).

Counter-ions that a name gives are not always drawn. Like-named read-outs stand apart in the source and are kept apart here.

T1 sequence (P28223 whole entry): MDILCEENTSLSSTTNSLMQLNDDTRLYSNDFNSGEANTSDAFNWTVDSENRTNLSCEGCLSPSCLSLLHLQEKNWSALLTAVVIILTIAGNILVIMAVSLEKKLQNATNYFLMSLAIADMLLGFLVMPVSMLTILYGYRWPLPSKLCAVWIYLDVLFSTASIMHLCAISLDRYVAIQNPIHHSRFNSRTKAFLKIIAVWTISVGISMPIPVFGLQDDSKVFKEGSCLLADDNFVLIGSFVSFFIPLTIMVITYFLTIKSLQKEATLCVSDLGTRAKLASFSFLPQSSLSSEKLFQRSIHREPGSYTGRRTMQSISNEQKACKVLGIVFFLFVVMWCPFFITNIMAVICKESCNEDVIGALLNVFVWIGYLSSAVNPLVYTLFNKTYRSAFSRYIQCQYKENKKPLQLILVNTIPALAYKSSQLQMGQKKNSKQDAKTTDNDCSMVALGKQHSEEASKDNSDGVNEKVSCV
T3 sequence (P41595 whole entry): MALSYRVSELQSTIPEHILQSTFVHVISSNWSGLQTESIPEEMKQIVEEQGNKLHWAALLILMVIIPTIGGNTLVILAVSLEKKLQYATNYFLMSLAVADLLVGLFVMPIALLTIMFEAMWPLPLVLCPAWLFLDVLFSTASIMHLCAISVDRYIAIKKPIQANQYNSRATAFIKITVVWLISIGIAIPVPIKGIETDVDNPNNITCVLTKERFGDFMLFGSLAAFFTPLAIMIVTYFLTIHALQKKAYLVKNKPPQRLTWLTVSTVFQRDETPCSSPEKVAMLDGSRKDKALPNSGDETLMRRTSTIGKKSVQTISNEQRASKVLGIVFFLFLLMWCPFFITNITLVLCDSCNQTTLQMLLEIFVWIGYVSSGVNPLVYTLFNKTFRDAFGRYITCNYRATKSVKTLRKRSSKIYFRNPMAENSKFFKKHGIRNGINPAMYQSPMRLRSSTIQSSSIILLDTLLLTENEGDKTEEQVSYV

The term EC50 denotes the concentration that produces a half-maximal response. As usually defined, the Ki is the equilibrium dissociation constant of an inhibitor or competing ligand from its target. Consider `CSc1ccc2c(c1)c(CC(C)N)c1n2CCC1` (racemic) [Example 11, (RS)-1-(7-Methylthio-2,3-dihydro-1H-pyrrolo[1,2-a]indol-9-yl)-2-propylamine fumarate], for which the EC50 in data set [1] (FLIPR, read-out: h5-HT2A EC50) is above 10000 nM; in data set [5] (h5-HT2c EC50, FLIPR), 8 nM. In addition, the Ki in data set [2] (setting [7]) came out at 84 nM; in data set [3] (setting [8]), 115 nM; in data set [4] (setting [9]) it was 316 nM. Also, the “h5-HT2c Relative Efficacy” value in data set [5] was found to be 80%.

As to `COc1ccc2c(c1)c(CC(C)N)c1n2CCC1` (single isomer, unassigned; enantiomer 1) [Example 8], the EC50 in data set [1] (FLIPR, read-out: h5-HT2A EC50) came out at 921 nM; in data set [5] (h5-HT2c EC50, FLIPR) it was 33 nM. Also, the “h5-HT2A Relative Efficacy” value in data set [1] is 36%. In data set [5], the “h5-HT2c Relative Efficacy” value amounted to 58%.

What is called melting point is the temperature of the solid-liquid transition. With `CC(N)Cc1c2n(c3ccc(OCc4ccccc4)cc13)CCC2` (racemic) (as salt: fumarate), the melting point was 146 to 147 °C (dec.).

Consider `COc1ccc2c(c1)c(CC(C)N)c1n2CCC1` (single isomer, unassigned; enantiomer 2) [Example 9, Enantiomer 2 of 1-(7-Methoxy-2,3-dihydro-1H-pyrrolo[1,2-a]indol-9-yl)-2-propylamine fumarate], for which the EC50 in data set [1] (FLIPR, read-out: h5-HT2A EC50) was 792 nM; in data set [5] (h5-HT2c EC50, FLIPR), 7 nM. Besides, the “h5-HT2A Relative Efficacy” value in data set [1] amounted to 40%. In data set [5], the “h5-HT2c Relative Efficacy” value amounted to 81%.

In the case of `COc1ccc2c(c1)c(CC(C)NCC1CCCCC1)c1n2CCC1` (racemic) (as salt: hydrochloride), the melting point fell in the range of 210 to 213 °C.

`CC(N)Cc1c2n(c3cc(F)c(F)cc13)CCC2` (racemic) (as salt: hydrochloride) [Example 2, (RS)-1-(6,7-Difluoro-2,3-dihydro-1H-pyrrolo[1,2-a]indol-9-yl)-2-propylamine hydrochloride] returned a melting point of 264 to 266 °C.

Regarding `Cc1ccc2c(c1)c(CC(C)N)c1n2CCC1` (racemic) [Example 6, (RS)-1-(7-Methyl-2,3-dihydro-1H-pyrrolo[1,2-a]indol-9-yl)-2-propylamine fumarate], the EC50 was above 10000 nM in data set [1] (FLIPR, read-out: h5-HT2A EC50) and 348 nM in data set [5] (h5-HT2c EC50, FLIPR). For the same compound, in data set [5], the “h5-HT2c Relative Efficacy” value is given as 56%.

In turn, `COc1ccc2c(c1)c(CC(C)NCC1CC1)c1n2CCC1` (racemic) (as salt: hydrochloride) had a melting point of 149 to 151 °C.

Take `Cc1ccc2c(c1)c(CC(C)N)c1n2CCC1` (racemic) (as salt: fumarate) [Example 6, (RS)-1-(7-Methyl-2,3-dihydro-1H-pyrrolo[1,2-a]indol-9-yl)-2-propylamine fumarate]: the melting point lay in the range of 138 to 139 °C.

As for `CC(N)Cc1c2n(c3ccc(Br)cc13)CCC2` (racemic) [Example 5, (RS)-1-(7-Bromo-2,3-dihydro-1H-pyrrolo[1,2-a]indol-9-yl)-2-propylamine fumarate], the EC50 in data set [1] (FLIPR, read-out: h5-HT2A EC50) is 4020 nM; in data set [5] (h5-HT2c EC50, FLIPR), 94 nM. The “h5-HT2A Relative Efficacy” value in data set [1] worked out at 33%. Further, the Ki was found to be 81 nM in data set [2] (setting [7]), 122 nM in data set [3] (setting [8]) and 448 nM in data set [4] (setting [9]). Further, in data set [5], the “h5-HT2c Relative Efficacy” value turned out to be 69%.

`COc1ccc2c(c1)c(CC(C)NCC(C)(C)C)c1n2CCC1` (racemic) (as salt: hydrochloride) gave a melting point of 226 to 228 °C.

For the compound `COc1ccc2c(c1)c(CC(C)N)c1n2CCC1` (racemic) [Example 3, (RS)-1-(7-Methoxy-2,3-dihydro-1H-pyrrolo[1,2-a]indol-9-yl)-2-propylamine fumarate], the EC50 in data set [1] (FLIPR, read-out: h5-HT2A EC50) is 636 nM; in data set [5] (h5-HT2c EC50, FLIPR), 32 nM. In data set [1], the “h5-HT2A Relative Efficacy” value turned out to be 22%. Moreover, the Ki in data set [2] (setting [7]) worked out at 118 nM; in data set [3] (setting [8]), 220 nM; in data set [4] (setting [9]), 151 nM. In data set [6], the “time for which significant pharmacological efficacy is maintained (5-HT2C syndrome)” value is “at least 180 minutes”. The “h5-HT2c Relative Efficacy” value in data set [5] is listed as 63%.

As for `CC(N)Cc1c2n(c3cc(F)c(F)cc13)CCC2` (racemic) [Example 2, (RS)-1-(6,7-Difluoro-2,3-dihydro-1H-pyrrolo[1,2-a]indol-9-yl)-2-propylamine hydrochloride], the EC50 was above 1000 nM in data set [1] (h5-HT2A EC50, FLIPR) and 147 nM in data set [5] (FLIPR, read-out: h5-HT2c EC50). In addition, the “h5-HT2A Relative Efficacy” value in data set [1] is reported as 12%. The values for the Ki in data set [2], in data set [3] and in data set [4] were 97 nM, 102 nM and 257 nM, respectively. Further, in data set [5], the “h5-HT2c Relative Efficacy” value is 38%.

In the case of `CC(N)Cc1c2n(c3cc4c(cc13)OCO4)CCC2` (racemic) [Example 7, (RS)-1-[6,7-(Methylenedioxy)-2,3-dihydro-1H-pyrrolo[1,2-a]indol-9-yl]-2-propylamine fumarate], the EC50 amounted to 2620 nM in data set [1] (FLIPR, read-out: h5-HT2A EC50) and 227 nM in data set [5] (h5-HT2c EC50, FLIPR). In data set [1], the “h5-HT2A Relative Efficacy” value amounted to 37%. The “h5-HT2c Relative Efficacy” value in data set [5] is 59%.

For `CC(N)Cc1c2n(c3ccc(Cl)cc13)CCC2` (racemic) [Example 1, (RS)-1-(7-Chloro-2,3-dihydro-1H-pyrrolo[1,2-a]indol-9-yl)-2-propylamine hydrochloride], the EC50 stood at 3240 nM in data set [1] (FLIPR, read-out: h5-HT2A EC50) and 96 nM in data set [5] (h5-HT2c EC50, FLIPR). Further, the “h5-HT2A Relative Efficacy” value in data set [1] turned out to be 33%. The Ki in data set [2] (setting [7]) came out at 110 nM; in data set [3] (setting [8]) it was 229 nM; in data set [4] (setting [9]) it was 457 nM. Also, in data set [5], the “h5-HT2c Relative Efficacy” value was 68%.

With `COc1ccc2c(c1)c(CC(C)NCCC(C)C)c1n2CCC1` (racemic) (as salt: hydrochloride), the melting point fell in the range of 118 to 121 °C.

With `CC(N)Cc1c2n(c3cccc(Cl)c13)CCC2` (racemic) (as salt: fumarate), the melting point lay in the range of 207 to 208 °C.

On to `CSc1ccc2c(c1)c(CC(C)N)c1n2CCC1` (racemic) (as salt: fumarate) [Example 11, (RS)-1-(7-Methylthio-2,3-dihydro-1H-pyrrolo[1,2-a]indol-9-yl)-2-propylamine fumarate], for which the melting point was 204 to 206 °C (dec.).

Compound `COc1ccc2c(c1)c(CC(C)N)c1n2CCC1` (racemic) (as salt: fumarate) [Example 3, (RS)-1-(7-Methoxy-2,3-dihydro-1H-pyrrolo[1,2-a]indol-9-yl)-2-propylamine fumarate] came in with a melting point of 194 to 196 °C.

The compound `CC(N)Cc1c2n(c3ccc(Cl)cc13)CCC2` (racemic) (as salt: hydrochloride) [Example 1, (RS)-1-(7-Chloro-2,3-dihydro-1H-pyrrolo[1,2-a]indol-9-yl)-2-propylamine hydrochloride] had a melting point of 272 to 273 °C.

Values taken from patent US6433175B1, “Pyrroloindoles, pyridoindoles and azepinoindoles as 5-ht2c agonists” (Vernalis Research Limited, priority 1998, dated 2002).
